{
  "source": "patent US20050112131A1",
  "about": "“Methods of adjuvant photodynamic therapy to enhance radiation sensitization” (priority 2002, published 2005)",
  "key": {"[1]": {"test_system": "RIF-1 tumors", "experiment": "Tumor pO2 by Eppendorf electrode after ALA photodynamic therapy", "format": "in vivo, mice", "method": "To independently confirm the results described above in ALA-PPIX-treated animals, Eppendorf pO2 electrode measurements were performed in the same tumor model. Two sections of animals with tumors were irradiated for 45 minutes. The first group of animals received ALA-injections 3 hours prior to light irradiation at a concentration of 100 mg/kg, and the second group received light alone. The light was at a wavelength of 633 nm, at a fluence of 150 mW/cm^2. Measurements were taken from the tumors immediately after the light was turned off. […] Collected data were pooled from three tracks in each animal with seven control animals (FIG. 7A) and 6 treated animals (FIG. 7B). The median pO2 for the control group was 3.7 mm Hg, while the median for the treated group was 8.7 mm Hg. Clearly, significant increases in tumor oxygenation occurred after treatment."}, "[2]": {"test_system": "RIF-1 tumors", "experiment": "Tumor oxygen by EPR oximetry at different irradiances", "format": "in vivo, mice", "conditions": "light 3 hours post-injection; for tumor pO2 levels during treatment, low irradiance: 50 mW/cm^2 verteporfin, 30 mW/cm^2 ALA-PPIX; for tumor pO2 levels during treatment, high irradiance: 200 mW/cm^2 verteporfin, 150 mW/cm^2 ALA-PPIX", "method": "Tumor oxygen changes were measured in mice treated either with aminolevulinic acid-induced protoporphyrin IX (ALA-PPIX) or verteporfin. Using electron paramagnetic resonance (EPR) oximetry described in Example 1, two irradiance levels were performed three hours post-injection of verteporfin or ALA-PPIX. Irradiance levels for ALA-PPIX were 30 mW/cm^2 and 150 mW/cm^2, whereas 50 mW/cm^2 and 200 mW/cm^2 were used for verteporfin.\nEPR oximetry measured tumor oxygenation in RIF-1 tumor cells and in tumorigenic mice treated with photodynamic therapy, using synthetic lithium phthalocyanine (LiPc) as the oxygen-sensitive EPR material. Small particles between 50 and 200 μm in size were implanted into the animal tumors by 23-gauge needle at a depth of 1-3 mm within the tumor. Injections of LiPc were performed at least 24 hours prior to photodynamic therapy. Mice were placed in an L-band (1.2 GHz) EPR spectrometer with a microwave bridge that was custom-built for small animal experiments involving measurement of tissue pO2. Each mouse was anesthetized and placed in the EPR resonator for continuous measurement of the tumor tissue pO2 in 15-minute intervals. The external loop resonator was positioned over the tumor to record the EPR signal of injected LiPc within the tissue. Line widths of the EPR signal were converted to pO2 using a calibration curve determined for LiPc. The data were fit with a software program to match the Voigt line shape after the line widths were graphed as a function of time before, during, and after treatment."}, "[3]": {"test_system": "RIF-1 tumors", "experiment": "Tumor regrowth assay, photodynamic therapy alone or combined with radiation", "format": "in vivo, mice", "method": "The combination effect of photodynamic therapy and radiation therapy was examined in in vivo tumor models. Injection of PBD or saline (control) was given 3 hours prior to irradiation in all animals. Light at 690 nm wavelength was delivered t the photodynamic therapy treated animals while the animal was positioned in the irradiator cone. An irradiance of 133 mW/cm^2 was used for a total of 12 minutes, for a total dose of 100 J/cm^2. Radiation was administered at a single dose of 10 Gy (300 keV, 10 mA, HVL=2.33 Gy/min). The following groups were organized: (1) sham-irradiated controls, (2) radiation treatment alone, (3) photodynamic therapy alone, (4) radiation treatment followed by photodynamic therapy, and (5) photodynamic therapy with simultaneous radiation treatment. In Group 4, X-ray radiation was administered for the full 3-minute treatment period after the photosensitizer was injected and incubated in the animal for 3 hours, then irradiation was given for 12 minutes. The Group 5 animals received irradiation 3 hours after drug injection, and during the last three minutes of the irradiation. X-ray irradiation was also given to the tumor at the same time.\nIrradiation using the 10 Gy dose using approximately 300 keV was delivered in 3 minutes from a Pantak Therapax 300 orthovoltage irradiator, using a 2 cm collimation cone. This cone was contacted with a region of the mouse leg surrounding the tumor. The end of the collimation cone was comprised of transparent plastic, allowing radiation and treatment to occur at the same time (required for Group 5, where photodynamic therapy and radiation were simultaneously administered). All animals were treated with the cone in place, as well as Group 1 sham-irradiated mice and Group 3 photodynamic therapy alone mice. This was performed to ensure equal doses of light were given to all groups, which included changes in the beam from reflection and refraction through the irradiator cone.\nEach group of mice were assayed for tumor regrowth following combined radiation/photodynamic therapy, radiation alone, or photodynamic therapy alone. The resulting treatment effect was assayed by calculation of tumor volume, as calculated by measurement of the three major axis dimensions: Volume≅Length×Width×Height/2 The time for a tumor to reach double its volume on the day of treatment was calculated for each individual animal separately, by estimating the data by a linear fit to logarithmic growth curves versus time. The average values from these times to double in volume were determined for each group of mice. Analysis of the tumor regrowth data, estimates of the mean double time (including standard deviation), and mice heterogeneity was achieved by generating individual growth curve data and fitting with a mixed effect model. It was assumed that after day 3, the tumor re-grows exponentially, which corresponds to a linear function when plotted on a semi-logarithmic graph. The time for a tumor to reach double its volume on the day of treatment was calculated for each group along with the respective standard deviation. The standard error gives rise to the group comparison using X-test to account for significant differences between the mean values of the different treatment groups."}, "[4]": {"test_system": "RIF-1 cells", "experiment": "In vitro cellular oxygen consumption rate by EPR oximetry", "format": "cell-based, mouse", "conditions": "1 μg/ml BPD, 3-hour incubation", "method": "(§1) RIF-1 cells were plated three days prior to treatment in black, plastic 96-well plates with a transparent bottom (Fisher Scientific, Springfield, N.J.) at a density of 5000 cells/200 μl medium/well. After 3 days of growth in 5% CO2 at 37° C. in a humidified incubator, the cells were used in photodynamic therapy. On the day of treatment, the medium was replaced with 100 μl/well of medium with 1 μg/ml BPD in the verteporfin preparation. After a 3-hour incubation, the BPD solution was removed and rinsed once with Hanks Balanced Salt Solution (HBSS), then 100 μl of fresh medium was added to the wells. Cells were irradiated in groups of four wells, with blank wells between the treated groups to ensure that each group of wells received the correct dose of light. In each 96-well plate, squares of 4 were treated with increasing light doses with 8 groups/plate, including the control, non-irradiated group. Surviving cells were assayed for viability and/or cellular oxygen consumption.\nImmediately following photodynamic therapy, cells were trypsinized, suspended in fresh medium, and cell viability determined by trypan blue dye exclusion prior to use in oxygen consumption measurement. […] The rate of oxygen consumption was measured using EPR. […] A Bruker EMX EPR spectrometer measured all spectra, operating at 9 GHz. […] The slope of the obtained data was determined by linear regression. […]"}, "[5]": {"test_system": "RIF-1 tumors", "experiment": "Tumor pO2 by EPR oximetry during verteporfin photodynamic therapy", "format": "in vivo, mice", "method": "Measurements of tumor partial pressure of oxygen (pO2) were taken in mice that harbored tumors derived from injection of transformed cells. Radiation-induced fibrosarcoma (RIF-1) cells were used for in vivo studies. RIF-1 cells were obtained from the National Cancer Institute (NCI) and originated from the laboratory of James B. Mitchell. The cells were grown in culture in RPMI 1640 cell culture medium, supplemented with 10% fetal bovine serum (FBS), L-glutamine, and appropriate antibiotics. The cells were not passaged more than four times from the original stock. Cell cultures were scaled up to large culture flasks, then removed and resuspended in medium lacking FBS and injected at 4×10^6 cells/mouse in a 50 μl volume. Intradermal injection delivered the cancer cells into the upper right leg of female C3h/HeJ mice (age 5-6 weeks) approximately 11-14 days before the anticipated treatment time.\nVerteporfin was obtained from QLT Phototherapeutics Inc. (Vancouver, BC, Canada) for use as photosensitizer. The photoactive molecule is a benzoporphyrin derivative mono-acid ring ‘A’ (BPD-MA), which was suspended in a lipid preparation comprising 1.77% of BPD-MA and the remaining 98.23% composed of the lipids. Verteporfin was reconstituted in phosphate buffered saline (PBS) at a final concentration of 0.2 mg BPD-MA/ml, then injected into mice lateral tail vein to deliver a dose of 1 mg BPD-MA per kg of body weight. The drug was allowed to incubate for varying times prior to light exposure.\nA diode laser system with 200 mW average power was used, at a wavelength of 690 nm (Applied Optronics, South Plainfield, Conn.). The beam was delivered to the tumor site in animals through a 140 μm fiber-optic, and was expanded onto the tumor in a circular top-hat beam, using a fiber-optic collimator (Thor Labs, North Newton, N.J.). The beam diameter for in vivo experiments was 1.1 cm, producing an irradiance of 200 mW/cm^2. Light treatment was given transcutaneously with shaven animals.\nAnimals were anesthetized by isoflurane at a concentration of 1.5% mixed with 26% oxygen in a continuous flow, delivered by inhalation. The animal was maintained at 37° C. on a heated water pad. Warm air was allowed to flow over the animal. In the first treatment group, tumors were exposed to light three hours after verteporfin injection. The second group received light only 15 minutes after injection. These animals were monitored for tumor pO2 before, during, and after treatment. The second experimental group is thought to be indicative of eliciting a vascular occlusion response, and contrasts effects from 3-hour photosensitizer incubation. The third group received light without prior photosensitizer injection.\nTumor pO2 was monitored with an oxygen-sensitive electron paramagnetic resonance (EPR) probe material, synthetic lithium phthalocyanine (LiPc), which was implanted into tissue and allowed for stable measurements of tissue pO2 over several weeks. […] LiPc molecules between 50 and 200 μm in diameter were implanted into the animal tumors with a 23-gauge needle at least 24 hours before photodynamic therapy, allowing for resolution of acute fluctuations in pO2 due to injection. The particles were implanted at a depth of 1-3 mm within the tumor.\nThe animals were placed in an L-band (1.2 GHz) EPR spectrometer with a custom-made microwave bridge for measurements of tissue pO2. The external loop resonator was positioned over the tumor to record the EPR signal of the LiPc from within the tissue. […]"}, "[6]": {"test_system": "RIF-1 cells", "experiment": "Cell viability (MTS assay) after in vitro photodynamic therapy", "format": "cell-based, mouse", "conditions": "1 μg/ml BPD, 3-hour incubation, maximal light dose, MTS 24 hours after treatment", "method": "as §1, with “In each 96-well plate, squares of 4 were treated with increasing light doses with 8 groups/plate, including the control, non-irradiated group. Surviving cells were assayed for viability and/or cellular oxygen consumption.” left out\nSurviving cells were assayed 24 hours after treatment, using the MTS assay kit (CellTiter 96®AQueous, Promega, Madison, Wis.). […] After incubation for 1 h at 37° C., the absorbance of the formazan product at […] was measured directly in an automated plate reader (ThermoMax, Molecular Devices, Menlo Park, Calif.). The quantity of formazan product as measured by the amount of 490 nm absorbance units is directly proportional to the number of living cells in culture, and absorbance values from groups of wells that received the same light dose were averaged. […]"}, "[7]": {"conditions": "Group 4, radiation (10 Gy) then PDT"}, "[8]": {"conditions": "Group 5, PDT with simultaneous radiation (10 Gy)"}},
  "data": [
    {"compound": "NCC(=O)CCC(=O)O", "note": "[ALA, 5-aminolevulinic acid]", "values": [
      {"measurement": "median tumor pO2 immediately after light", "setting": "[1]; 100 mg/kg ALA 3 hours prior to 633 nm light, 150 mW/cm^2 for 45 minutes, light-only control median 3.7", "result": 8.7, "unit": "mm Hg"},
      {"measurement": "increase in tumor oxygenation", "setting": "[1]; EPR oximetry and Eppendorf electrode, treated vs control", "result": "more than two-fold increases"},
      {"measurement": "tumor pO2 levels during treatment, low irradiance", "setting": "[2]", "result": "remained the same"},
      {"measurement": "tumor pO2 levels during treatment, high irradiance", "setting": "[2]", "result": "a measurable drop in oxygen"}
    ]},
    {"compound": "benzoporphyrin derivative mono-acid ring ‘A’ (BPD-MA) [Verteporfin]", "values": [
      {"measurement": "Re-growth Delay in Doubling Time", "setting": "[3]; Group 3, PDT only", "result": "3.2 ± 1.7"},
      {"measurement": "slope of the natural logarithm of tumor volume versus days", "setting": "[3]; Group 3, PDT only", "result": 0.13},
      {"measurement": "Time for Tumor to Double Initial Volume", "setting": "[3]; Group 3, PDT only, injection 3 hours before 690 nm light, 100 J/cm^2", "result": "8.9 ± 1.7"},
      {"measurement": "Re-growth Delay in Doubling Time", "setting": "[3]; [7]", "result": "5.4 ± 1.4"},
      {"measurement": "Time for Tumor to Double Initial Volume", "setting": "[3]; [7]", "result": "11.0 ± 1.5"},
      {"measurement": "slope of the natural logarithm of tumor volume versus days", "setting": "[3]; Group 4, radiation then PDT", "result": 0.13},
      {"measurement": "slope of the natural logarithm of tumor volume versus days", "setting": "[3]; Group 5, PDT with simultaneous radiation", "result": 0.11},
      {"measurement": "Re-growth Delay in Doubling Time", "setting": "[3]; [8]", "result": "8.1 ± 1.5"},
      {"measurement": "Time for Tumor to Double Initial Volume", "setting": "[3]; [8]", "result": "13.7 ± 1.6"},
      {"measurement": "oxygen consumption rate", "setting": "[4]; highest light dose 16 J/cm^2", "result": "0.37±0.04", "unit": "mmol/min/10^6 cells"},
      {"measurement": "oxygen consumption as % of control oxygen consumption rates", "setting": "[4]; maximal light dose", "result": "21±4", "unit": "%"},
      {"measurement": "tumor pO2 at 1 h post-treatment", "setting": "[5]; 1 mg/kg BPD-MA i.v., light 3 hours after injection", "result": "returned to within control, or pre-treatment values"},
      {"measurement": "final tumor pO2 immediately after treatment", "setting": "[5]; 1 mg/kg BPD-MA i.v., light 3 hours after injection, 690 nm, 144 J/cm^2, p=0.048 vs control", "result": "15.2±6.9", "unit": "mm Hg"},
      {"measurement": "initial tumor pO2", "setting": "[5]; 1 mg/kg BPD-MA i.v., light 3 hours after injection, value before light", "result": "2.8±1.0", "unit": "mm Hg"},
      {"measurement": "average tumor pO2 prior to light exposure", "setting": "[5]; 1 mg/kg BPD-MA injected 15 min prior to irradiation", "result": "6.8±1.6", "unit": "mm Hg"},
      {"measurement": "average tumor pO2 immediately following treatment", "setting": "[5]; 1 mg/kg BPD-MA injected 15 min prior to irradiation (vascular targeting)", "result": "4.1±0.3", "unit": "mm Hg"},
      {"measurement": "cell survival", "setting": "[6]", "result": "20±5", "unit": "%"},
      {"measurement": "tumor pO2 levels during treatment, low irradiance", "setting": "[2]", "result": "remained the same"},
      {"measurement": "tumor pO2 levels during treatment, high irradiance", "setting": "[2]", "result": "remained the same"}
    ]}
  ]
}
